Where “and” joins values, the source holds several entries; their conditions need not be identical. Identical values can stand only once. Like-named read-outs stand apart in the source and are kept apart here.
Columns and labels:
[1] = tested on: GPX4; assay: Western blot of treated 786-0 cells: GPX4; format: cell-based, human; conditions: higher concentrations of compound, FIG. 4 Part D
Method: Western blots were performed to determine the effects of the compounds on levels of HIF-2α and other relevant proteins. 786-0 (pVHL deficient clear cell kidney cancer cells) were purchased from ATCC were plated at 1×10E5 cells/well in 2 ml DMEM with 10% FBS/well in 6-well tissue culture plates. Cells were allowed to adhere overnight in a humidified incubator at 37° C. with 5% CO2, after which the appropriate concentrations of compounds in DMSO were added. DMSO concentrations were kept constant in all wells. After 24 hour's exposure to the compounds, cells were lysed and subjected to western blotting according to standard protocols (Polek, Talpaz et al. 2003). Antibodies for HIF-2α and Glyceraldehyde 3-Phosphate Dehydrogenase (GAPDH) were purchased from Cell Signaling Technology (Danvers, Mass.), whereas antibodies to iron responsive element binding protein 2 (IRP2) and Glutathione Peroxidase 4 (GPX4) were from Santa Cruz Biotechnology (Dallas, Tex.) and R&D Systems, Inc (Minneapolis, Minn.). Representative data in FIG. 3 show a dose-dependent effect of compounds in decreasing HIF-2α. Compounds also impact cellular iron sensing given by increased IRP2, which taken together indicate that cells sense decreased amounts of available iron. Representative data shown in FIG. 5 Part C show a dose dependent effect of the compounds on GPX4, which may indicate decreased resistance to ferroptosis.

[2] = Bioavailability determination of KD025HCl in mice (plasma levels after IV or PO); format: in vivo; conditions: for MRT last: read-out: MRT0-last
Method: To determine the bioavailability KD025HCl, serum concentrations of KD025HCl were determined after varying durations following oral or intravenous (IV) administration. Doses were validated by LC/MS/MS.
For IV administration, 264 μl of N-Methyl-2-Pyrrolidone (NMP) was added to 1.221 mg of KD025HCl, and the solution vortexed and sonicated until complete dissolution. Then, 2.374 ml of 10% (v/v) solutol in water for injection was added, and the solution vortexed, then sonicated with a bath sonicator. The final dosing formulation of a brownish colored clear solution. A single 2 mg/kg dose (5 ml/kg) was administered IV each to nine male Swiss albino mice.
For oral administration (PO), […] of Tween-80 was added to 3.38 mg of KD025HCl, triturated, then 2.893 ml of 0.5% methyl cellulose was added in parts with continuous trituration then vortexed. The final dosing formulation was a brownish colored clear solution. A single 10 mg/kg dose (10 ml/kg) was administered PO each to nine male Swiss albino mice.
Calibration Curve & QC preparation: 2.0 μl of calibration curve standards were added to […] of blank matrix and precipitated with 200 μl of Acetonitrile containing an internal standard at 200 ng/ml. The solution was vortexed for 5 min at 850 rpm, then centrifuged at 4000 rpm for 5 min at 4° C. 110 μl of the supernatant was obtained and diluted with 130 μl of (Methanol:water, 1:1 v/v). Sample Preparation: 50 μl of sample was precipitated with 200 μl of Acetonitrile containing the internal standard at 200 ng/ml. The mixture was vortexed for 5 min at 850 rpm, then centrifuged at 4000 rpm for 5 min at 4° C. 110 μL of supernatant was obtained and diluted with 130 μL of (Methanol:water, 1:1 v/v).
Using this procedure, the plasma levels of KD025HCl after either IV or PO administration was determined, and bioavailability as well as other pharmacokinetic parameters were determined and shown in Table 6.

[3] = IV 2.00 mg/kg, 24.00 h, Swiss albino mice, BLQ: Below limits of quantitation
[4] = IV 2.00 mg/kg, Swiss albino mice, plasma
[5] = male, mouse, IV 2.00 mg/kg, Swiss albino mice, plasma
[6] = male, mouse, PO 10.00 mg/kg, Swiss albino mice, plasma

Compound: COc1ccc(-c2nnc(Nc3nc4c(OC)nccc4[nH]3)o2)cc1OC [KD025HCl, N-(4-Methoxy-1H-imidazo[4,5-c]pyridin-2-yl)-5-(3,4-dimethoxyphenyl)-1,3,4-oxadiazol-2-amine]
- GPX4 protein (western blot) [1]: decrease
- Plasma concentration, individual animals (M1-, M2-, M3-) ([2]; IV 2.00 mg/kg, 0.08 h, Swiss albino mice, 2 mg/kg): 3949.80 ng/mL and 3776.46 ng/mL
- Plasma concentration, individual animals (M1-, M2-, M3-) ([2]; IV 2.00 mg/kg, 0.25 h, Swiss albino mice, 2 mg/kg): 2069.26 ng/mL and 3078.66 ng/mL
- Plasma concentration, individual animals (M1-, M2-, M3-) ([2]; IV 2.00 mg/kg, 0.50 h, Swiss albino mice, 2 mg/kg): 1527.09 ng/mL and 2079.24 ng/mL
- Plasma concentration, individual animals (M1-, M2-, M3-) ([2]; IV 2.00 mg/kg, 1.00 h, Swiss albino mice, 2 mg/kg): 282.26 ng/mL and 11135.53 ng/mL and 952.05 ng/mL
- Plasma concentration, individual animals (M1-, M2-, M3-) ([2]; IV 2.00 mg/kg, 2.00 h, Swiss albino mice, 2 mg/kg): 277.23 ng/mL and 334.05 ng/mL and 611.15 ng/mL
- Plasma concentration, individual animals (M1-, M2-, M3-) ([2]; IV 2.00 mg/kg, 4.00 h, Swiss albino mice, 2 mg/kg): 31.51 ng/mL and 45.40 ng/mL
- Plasma concentration, individual animals (M1-, M2-, M3-) ([2]; IV 2.00 mg/kg, 8.00 h, Swiss albino mice, 2 mg/kg): 11.09 ng/mL and 28.55 ng/mL and 16.02 ng/mL
- Plasma concentration, Mean [2, 3]: BLQ
- Plasma concentration, individual animals (M1-, M2-, M3-) [2, 3]: BLQ
- AUCExtra [2, 4]: 1.15%
- Co [2, 4]: 5481.64 ng/mL
- Plasma concentration, individual animals (M1-, M2-, M3-) ([2]; PO 10.00 mg/kg, 0.25 h, Swiss albino mice, 10 mg/kg): 1609.45 ng/mL and 742.75 ng/mL and 1428.60 ng/mL
- Plasma concentration, individual animals (M1-, M2-, M3-) ([2]; PO 10.00 mg/kg, 0.50 h, Swiss albino mice, 10 mg/kg): 1712.09 ng/mL and 2056.44 ng/mL
- Plasma concentration, individual animals (M1-, M2-, M3-) ([2]; PO 10.00 mg/kg, 1.00 h, Swiss albino mice, 10 mg/kg): 784.84 ng/mL and 1081.06 ng/mL
- Plasma concentration, individual animals (M1-, M2-, M3-) ([2]; PO 10.00 mg/kg, 2.00 h, Swiss albino mice, 10 mg/kg): 861.31 ng/mL and 1052.53 ng/mL
- Plasma concentration, individual animals (M1-, M2-, M3-) ([2]; PO 10.00 mg/kg, 4.00 h, Swiss albino mice, 10 mg/kg): 179.52 ng/mL and 94.08 ng/mL and 235.20 ng/mL
- Plasma concentration, individual animals (M1-, M2-, M3-) ([2]; PO 10.00 mg/kg, 6.00 h, Swiss albino mice, 10 mg/kg): 93.52 ng/mL and 126.29 ng/mL
- Plasma concentration, individual animals (M1-, M2-, M3-) ([2]; PO 10.00 mg/kg, 8.00 h, Swiss albino mice, 10 mg/kg): 50.78 ng/mL and 99.61 ng/mL
- Plasma concentration, Mean ([2]; PO 10.00 mg/kg, 24.00 h, Swiss albino mice, BLQ: Below limits of quantitation): BLQ
- Plasma concentration, individual animals (M1-, M2-, M3-) ([2]; PO 10.00 mg/kg, 24.00 h, Swiss albino mice, BLQ: Below limits of quantitation, 10 mg/kg): BLQ
- AUCExtra ([2]; PO 10.00 mg/kg, Swiss albino mice, plasma): 9.83%
- concentration at 0.08 h ([2]; male, Swiss albino, mouse, plasma, iv, 2 mg/kg, IV 2.00 mg/kg, 0.08 h, read-out: Plasma concentration, Mean): 4170 ng/mL
- concentration at 0.08 h ([2]; male, Swiss albino, mouse, plasma, iv, 2 mg/kg, IV 2.00 mg/kg, 0.08 h, read-out: Plasma concentration, individual animals (M1-, M2-, M3-)): 4790 ng/mL
- concentration at 0.25 h ([2]; male, Swiss albino, mouse, plasma, iv, 2 mg/kg, IV 2.00 mg/kg, 0.25 h, read-out: Plasma concentration, Mean): 2340 ng/mL
- concentration at 0.25 h ([2]; male, Swiss albino, mouse, plasma, iv, 2 mg/kg, IV 2.00 mg/kg, 0.25 h, read-out: Plasma concentration, individual animals (M1-, M2-, M3-)): 1860 ng/mL
- concentration at 0.5 h ([2]; male, Swiss albino, mouse, plasma, iv, 2 mg/kg, IV 2.00 mg/kg, 0.50 h, read-out: Plasma concentration, Mean): 1700 ng/mL
- concentration at 0.5 h ([2]; male, Swiss albino, mouse, plasma, iv, 2 mg/kg, IV 2.00 mg/kg, 0.50 h, read-out: Plasma concentration, individual animals (M1-, M2-, M3-)): 1480 ng/mL
- concentration at 1 h ([2]; male, Swiss albino, mouse, plasma, iv, 2 mg/kg, IV 2.00 mg/kg, 1.00 h, read-out: Plasma concentration, Mean): 790 ng/mL
- concentration at 2 h ([2]; male, Swiss albino, mouse, plasma, iv, 2 mg/kg, IV 2.00 mg/kg, 2.00 h, read-out: Plasma concentration, Mean): 407 ng/mL
- concentration at 4 h ([2]; male, Swiss albino, mouse, plasma, iv, 2 mg/kg, IV 2.00 mg/kg, 4.00 h, read-out: Plasma concentration, Mean): 38 ng/mL
- concentration at 4 h ([2]; male, Swiss albino, mouse, plasma, iv, 2 mg/kg, IV 2.00 mg/kg, 4.00 h, read-out: Plasma concentration, individual animals (M1-, M2-, M3-)): 37.2 ng/mL
- concentration at 8 h ([2]; male, Swiss albino, mouse, plasma, iv, 2 mg/kg, IV 2.00 mg/kg, 8.00 h, read-out: Plasma concentration, Mean): 18.6 ng/mL
- Vd ([2]; male, Swiss albino, mouse, plasma, iv, 2 mg/kg, IV 2.00 mg/kg, plasma, read-out: Vd): 1.24 L/kg
- Vd ([2]; male, Swiss albino, mouse, plasma, iv, 2 mg/kg, IV 2.00 mg/kg, plasma, read-out: Vss): 0.72 L/kg
- concentration at 0.25 h ([2]; male, Swiss albino, mouse, plasma, po, 10 mg/kg, PO 10.00 mg/kg, 0.25 h, read-out: Plasma concentration, Mean): 1260 ng/mL
- concentration at 0.5 h ([2]; male, Swiss albino, mouse, plasma, po, 10 mg/kg, PO 10.00 mg/kg, 0.50 h, read-out: Plasma concentration, Mean): 1910 ng/mL
- concentration at 0.5 h ([2]; male, Swiss albino, mouse, plasma, po, 10 mg/kg, PO 10.00 mg/kg, 0.50 h, read-out: Plasma concentration, individual animals (M1-, M2-, M3-)): 1970 ng/mL
- concentration at 1 h ([2]; male, Swiss albino, mouse, plasma, po, 10 mg/kg, PO 10.00 mg/kg, 1.00 h, read-out: Plasma concentration, Mean): 1140 ng/mL
- concentration at 1 h ([2]; male, Swiss albino, mouse, plasma, po, 10 mg/kg, PO 10.00 mg/kg, 1.00 h, read-out: Plasma concentration, individual animals (M1-, M2-, M3-)): 1570 ng/mL
- concentration at 2 h ([2]; male, Swiss albino, mouse, plasma, po, 10 mg/kg, PO 10.00 mg/kg, 2.00 h, read-out: Plasma concentration, Mean): 953 ng/mL
- concentration at 2 h ([2]; male, Swiss albino, mouse, plasma, po, 10 mg/kg, PO 10.00 mg/kg, 2.00 h, read-out: Plasma concentration, individual animals (M1-, M2-, M3-)): 945 ng/mL
- concentration at 4 h ([2]; male, Swiss albino, mouse, plasma, po, 10 mg/kg, PO 10.00 mg/kg, 4.00 h, read-out: Plasma concentration, Mean): 170 ng/mL
- concentration at 6 h ([2]; male, Swiss albino, mouse, plasma, po, 10 mg/kg, PO 10.00 mg/kg, 6.00 h, read-out: Plasma concentration, Mean): 127 ng/mL
- concentration at 6 h ([2]; male, Swiss albino, mouse, plasma, po, 10 mg/kg, PO 10.00 mg/kg, 6.00 h, read-out: Plasma concentration, individual animals (M1-, M2-, M3-)): 160 ng/mL
- concentration at 8 h ([2]; male, Swiss albino, mouse, plasma, po, 10 mg/kg, PO 10.00 mg/kg, 8.00 h, read-out: Plasma concentration, Mean): 78.6 ng/mL
- concentration at 8 h ([2]; male, Swiss albino, mouse, plasma, po, 10 mg/kg, PO 10.00 mg/kg, 8.00 h, read-out: Plasma concentration, individual animals (M1-, M2-, M3-)): 85.5 ng/mL
- concentration at 24 h ([2]; male, Swiss albino, mouse, plasma, po, 10 mg/kg, PO 10.00 mg/kg, 24.00 h, BLQ: Below limits of quantitation, read-out: Plasma concentration, individual animals (M1-, M2-, M3-)): 1.79 ng/mL
- bioavailability ([2]; male, mouse, plasma, PO 10.00 mg/kg versus IV 2.00 mg/kg, Swiss albino mice, read-out: Bio availability (% f)): 27.3%
- AUC(0-inf) [2, 5]: 3050 ng·h/mL
- AUC(0-t) [2, 5]: 3010 ng·h/mL
- clearance [2, 5]: 10.9 mL/min/kg
- half-life [2, 5]: 1.31 h
- MRT last [2, 5]: 0.99 h
- AUC(0-inf) [2, 6]: 4160 ng·h/mL
- AUC(0-t) [2, 6]: 3750 ng·h/mL
- Cmax [2, 6]: 1910 ng/mL
- Tmax [2, 6]: 0.5 h
- half-life [2, 6]: 3.61 h
- MRT last [2, 6]: 2.03 h

Source: patent US11447482B1, “Imidazopyridine and oxazolopyridine derivatives and analogs thereof, methods of preparation thereof, methods of HIF-2A pathway inhibition, and induction of ferroptosis” (KUDA Therapeutics, Inc., priority 2019, dated 2022)
